Results from US20260372303A1, “5-Fluoro-4-Imino-3-Methyl-1-Tosyl-3, 4-Dihydropyrimidin-2(1H) -One for Fungicide-Resistant Fungus” (priority 2022, published 2026).

How the values were obtained:
[1] = system: Zymoseptoria tritici strain Zt 99; experiment: In planta preventive efficacy on wheat cv. Alixan against Zymoseptoria tritici strain Zt 99; type: in vivo; conditions: for Disease Severity Intensity: % of length of 2nd leaf blade, preventive 24 h; for AUDPC: control 1352.9
In short: (§1)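 BBCH 12 wheat plants sprayed preventively, inoculated 24 h later with calibrated pycnospore suspension; 3 pots of 6 plants per condition, 20/17 °C, 16 h light. Necrosis length on second leaf scored at 15, 21 and 28 dpi; efficacy from trapezoidal AUDPC as % of untreated control.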

[2] = system: Zymoseptoria tritici strain Zt 20; experiment: In planta preventive efficacy on wheat cv. Alixan against Zymoseptoria tritici strain Zt 20; type: in vivo; conditions: % of length of 2nd leaf blade, preventive 24 h
In short: as §1

[3] = system: Zymoseptoria tritici strain Zt 61; experiment: In planta preventive efficacy on wheat cv. Alixan against Zymoseptoria tritici strain Zt 61; type: in vivo; conditions: for Disease Severity Intensity: % of length of 2nd leaf blade, preventive 24 h; for AUDPC: control 1194.9
In short: as §1

[4] = system: Z. tritici strains; experiment: In planta susceptibility of all Z. tritici strains pathogenic on wheat cv. ALIXAN (conclusions); type: in vivo, Zymoseptoria tritici
Procedure: Winter wheat plants cv. Alixan (Limagrain) at the BBCH 12 growth stage were treated preventively with sterile distilled water (control), ADF-16, penthiopyrad, metconazole or tebuconazole at the rates described in Table 2 with a hand sprayer at 2 bars.
After treatment, wheat plants were left to dry at room temperature for 1 hour and then placed in a climatic chamber: temperature of 24 °C day/18 °C night-photoperiod of 16 h light/8 h dark and a relative humidity of 65%.
Untreated or treated whole wheat plants were inoculated 24-hours post-treatment with a calibrated pycnospore suspension of Z. tritici strains Zt StA, Zt 61, Zt 99, Zt 20, Zt 19-52, and Zt 38-02. Three replicates (pots) of 6 wheat plants each were used for each condition tested. […]
Disease assessments were carried out at 15 days post inoculation (dpi), 21 dpi and 28 dpi by measuring the length of the necrosis on the second leaf blade. The intensity of infection was then determined as a percentage of the total length of 2nd leaf blade.
The fungicide efficacies were determined from the Area Under the Disease Progress Curve (AUDPC) values and expressed as a percentage of the untreated control.
The AUDPC is a quantitative measure of disease intensity over time. […] The AUDPC is determined with the following formula by adding all of the trapezoids: […]

[5] = system: Zymoseptoria tritici strain Zt StA; experiment: In planta preventive efficacy on wheat cv. Alixan against Zymoseptoria tritici strain Zt StA (control strain, sensitive); type: in vivo; conditions: for Disease Severity Intensity: % of length of 2nd leaf blade, preventive 24 h; for AUDPC: control 781.6
In short: as §1

[6] = system: Zymoseptoria tritici strain Zt 38-02; experiment: In planta preventive efficacy on wheat cv. Alixan against Zymoseptoria tritici strain Zt 38-02; type: in vivo; conditions: for Disease Severity Intensity: % of length of 2nd leaf blade, preventive 24 h; for AUDPC: control 1261.4
In short: as §1

[7] = system: Zymoseptoria tritici strain Zt 19-52; experiment: In planta preventive efficacy on wheat cv. Alixan against Zymoseptoria tritici strain Zt 19-52; type: in vivo; conditions: % of length of 2nd leaf blade, preventive 24 h
[8] = rate N (g a.i./ha): ADF-16 100, penthiopyrad 200, metconazole 90, tebuconazole 250
[9] = rate N/2.5 (g a.i./ha): ADF-16 40, penthiopyrad 80, metconazole 36, tebuconazole 100
[10] = 15 dpi, rate N (g a.i./ha): ADF-16 100, penthiopyrad 200, metconazole 90, tebuconazole 250, control also no disease
[11] = 15 dpi, rate N/2.5 (g a.i./ha): ADF-16 40, penthiopyrad 80, metconazole 36, tebuconazole 100, control also no disease

Cc1ccc(S(=O)(=O)n2cc(F)c(=N)n(C)c2=O)cc1 [ADF-16, 5-fluoro-4-imino-3-methyl-1-tosyl-3,4-dihydropyrimidin-2 (1H)-one]
Disease Severity Intensity ([1]; 15 dpi, rate N (g a.i./ha): ADF-16 100, penthiopyrad 200, metconazole 90, tebuconazole 250, control 47.9): 0.0 +/− 0.0d % | Disease Severity Intensity ([1]; 15 dpi, rate N/2.5 (g a.i./ha): ADF-16 40, penthiopyrad 80, metconazole 36, tebuconazole 100, control 47.9): 0.0 +/− 0.0d % | Disease Severity Intensity ([1]; 21 dpi, rate N (g a.i./ha): ADF-16 100, penthiopyrad 200, metconazole 90, tebuconazole 250, control 81.0): 0.1 +/− 0.1f % | Disease Severity Intensity ([1]; 21 dpi, rate N/2.5 (g a.i./ha): ADF-16 40, penthiopyrad 80, metconazole 36, tebuconazole 100, control 81.0): 0.0 +/− 0.0f % | Disease Severity Intensity ([1]; 28 dpi, rate N (g a.i./ha): ADF-16 100, penthiopyrad 200, metconazole 90, tebuconazole 250, control 92.2): 0.1 +/− 0.1e % | Disease Severity Intensity ([1]; 28 dpi, rate N/2.5 (g a.i./ha): ADF-16 40, penthiopyrad 80, metconazole 36, tebuconazole 100, control 92.2): 1.7 +/− 0.8e % | Efficacy (from AUDPC, percentage of the untreated control) [1, 8]: 99.9% | AUDPC [1, 8]: 1.2 ± 0.3 g | Efficacy (from AUDPC, percentage of the untreated control) [1, 9]: 99.6% | AUDPC [1, 9]: 5.9 ± 0.4 g | Disease Severity Intensity [2, 10]: No disease | Disease Severity Intensity [2, 11]: No disease | Disease Severity Intensity ([2]; 21 dpi, rate N (g a.i./ha): ADF-16 100, penthiopyrad 200, metconazole 90, tebuconazole 250, control 77.2): 0.0 +/− 0.0e % | Disease Severity Intensity ([2]; 21 dpi, rate N/2.5 (g a.i./ha): ADF-16 40, penthiopyrad 80, metconazole 36, tebuconazole 100, control 77.2): 0.0 +/− 0.0e % | Disease Severity Intensity ([2]; 28 dpi, rate N (g a.i./ha): ADF-16 100, penthiopyrad 200, metconazole 90, tebuconazole 250, control 95.5): 0.0 +/− 0.0g % | Disease Severity Intensity ([2]; 28 dpi, rate N/2.5 (g a.i./ha): ADF-16 40, penthiopyrad 80, metconazole 36, tebuconazole 100, control 95.5): 7.3 +/− 1.9f % | Disease Severity Intensity [3, 10]: No disease | Disease Severity Intensity [3, 11]: No disease | Disease Severity Intensity ([3]; 21 dpi, rate N (g a.i./ha): ADF-16 100, penthiopyrad 200, metconazole 90, tebuconazole 250, control 63.3): 0.0 +/− 0.0d % | Disease Severity Intensity ([3]; 21 dpi, rate N/2.5 (g a.i./ha): ADF-16 40, penthiopyrad 80, metconazole 36, tebuconazole 100, control 63.3): 3.2 +/− 1.1d % | Disease Severity Intensity ([3]; 28 dpi, rate N (g a.i./ha): ADF-16 100, penthiopyrad 200, metconazole 90, tebuconazole 250, control 88.1): 1.5 +/− 0.3g % | Disease Severity Intensity ([3]; 28 dpi, rate N/2.5 (g a.i./ha): ADF-16 40, penthiopyrad 80, metconazole 36, tebuconazole 100, control 88.1): 14.8 +/− 4.0e % | Efficacy (from AUDPC, percentage of the untreated control) [3, 8]: 99.6% | AUDPC [3, 8]: 5.4 ± 1.2 days | Efficacy (from AUDPC, percentage of the untreated control) [3, 9]: 91.9% | AUDPC [3, 9]: 97.2 ± 5.0 days | control in planta of Z. tritici strains ([4]; 8 strains pathogenic on wheat cv. ALIXAN, 2 doses tested (40 and 100 g a.i./ha)): perfectly controlled | effectiveness ([4]; full dose of 100 g a.i./ha, across strains): more than 99% | Disease Severity Intensity [5, 10]: No disease | Disease Severity Intensity [5, 11]: No disease | Disease Severity Intensity ([5]; 21 dpi, rate N (g a.i./ha): ADF-16 100, penthiopyrad 200, metconazole 90, tebuconazole 250, control 36.5): 0.0 +/− 0.0b % | Disease Severity Intensity ([5]; 21 dpi, rate N/2.5 (g a.i./ha): ADF-16 40, penthiopyrad 80, metconazole 36, tebuconazole 100, control 36.5): 0.0 +/− 0.0b % | Disease Severity Intensity ([5]; 28 dpi, rate N (g a.i./ha): ADF-16 100, penthiopyrad 200, metconazole 90, tebuconazole 250, control 77.4): 0.0 +/− 0.0b % | Disease Severity Intensity ([5]; 28 dpi, rate N/2.5 (g a.i./ha): ADF-16 40, penthiopyrad 80, metconazole 36, tebuconazole 100, control 77.4): 0.0 +/− 0.0b % | Efficacy (from AUDPC, percentage of the untreated control) [5, 8]: 100% | AUDPC [5, 8]: 0.0 +/− 0.0b | Efficacy (from AUDPC, percentage of the untreated control) [5, 9]: 100% | AUDPC [5, 9]: 0.0 +/− 0.0b | Disease Severity Intensity ([6]; 15 dpi, rate N (g a.i./ha): ADF-16 100, penthiopyrad 200, metconazole 90, tebuconazole 250, control 36.0): 0.0 +/− 0.0b % | Disease Severity Intensity ([6]; 15 dpi, rate N/2.5 (g a.i./ha): ADF-16 40, penthiopyrad 80, metconazole 36, tebuconazole 100, control 36.0): 0.0 +/− 0.0b % | Disease Severity Intensity ([6]; 21 dpi, rate N (g a.i./ha): ADF-16 100, penthiopyrad 200, metconazole 90, tebuconazole 250, control 84.3): 0.0 +/− 0.0f^ % | Disease Severity Intensity ([6]; 21 dpi, rate N/2.5 (g a.i./ha): ADF-16 40, penthiopyrad 80, metconazole 36, tebuconazole 100, control 84.3): 0.0 +/− 0.0f^ % | Disease Severity Intensity ([6]; 28 dpi, rate N (g a.i./ha): ADF-16 100, penthiopyrad 200, metconazole 90, tebuconazole 250, control 95.7): 0.4 +/− 0.4e % | Disease Severity Intensity ([6]; 28 dpi, rate N/2.5 (g a.i./ha): ADF-16 40, penthiopyrad 80, metconazole 36, tebuconazole 100, control 95.7): 0.0 +/− 0.0e % | Efficacy (from AUDPC, percentage of the untreated control) [6, 8]: 99.9% | AUDPC [6, 8]: 1.3 +/− 0.9e | Efficacy (from AUDPC, percentage of the untreated control) [6, 9]: 100% | AUDPC [6, 9]: 0.0 +/− 0.0e | Disease Severity Intensity ([7]; 15 dpi, rate N (g a.i./ha): ADF-16 100, penthiopyrad 200, metconazole 90, tebuconazole 250, control 22.0): 0.0 +/− 0.0b % | Disease Severity Intensity ([7]; 15 dpi, rate N/2.5 (g a.i./ha): ADF-16 40, penthiopyrad 80, metconazole 36, tebuconazole 100, control 22.0): 0.0 +/− 0.0b % | Disease Severity Intensity ([7]; 21 dpi, rate N (g a.i./ha): ADF-16 100, penthiopyrad 200, metconazole 90, tebuconazole 250, control 81.7): 0.4 +/− 0.4c % | Disease Severity Intensity ([7]; 21 dpi, rate N/2.5 (g a.i./ha): ADF-16 40, penthiopyrad 80, metconazole 36, tebuconazole 100, control 81.7): 0.3 +/− 0.2c % | Disease Severity Intensity ([7]; 28 dpi, rate N (g a.i./ha): ADF-16 100, penthiopyrad 200, metconazole 90, tebuconazole 250, control 91.0): 2.0 +/− 1.4ef % | Disease Severity Intensity ([7]; 28 dpi, rate N/2.5 (g a.i./ha): ADF-16 40, penthiopyrad 80, metconazole 36, tebuconazole 100, control 91.0): 4.4 +/− 1.7de %
